Data reported in ChEMBL document CHEMBL4000244, “Probing A-form DNA: A fluorescent aminosugar probe and dual recognition by anthraquinone-neomycin conjugates” (Bioorg Med Chem, 2017).

How the values were obtained:
[1] = Binding affinity to 5'-GGCCCCCC-3' DNA hairpin assessed as change in fluorescence intensity at 1 uM after 45 mins by fluorescence quenching analysis relative to control
[2] = Binding affinity to 5'-GGGCCCCG-3' DNA hairpin assessed as change in fluorescence intensity at 1 uM after 45 mins by fluorescence quenching analysis relative to control
[3] = Binding affinity to 5'-GGGGGCCG-3' DNA hairpin assessed as change in fluorescence intensity at 1 uM after 45 mins by fluorescence quenching analysis relative to control
[4] = Binding affinity to 5'-CCCCCCGC-3' DNA hairpin assessed as change in fluorescence intensity at 1 uM after 45 mins by fluorescence quenching analysis relative to control
[5] = Binding affinity to 5'-GGGGGGCC-3' DNA hairpin assessed as change in fluorescence intensity at 1 uM after 45 mins by fluorescence quenching analysis relative to control
[6] = Binding affinity to 5'-CGGCCCCG-3' DNA hairpin assessed as change in fluorescence intensity at 1 uM after 45 mins by fluorescence quenching analysis relative to control
[7] = Binding affinity to 5'-CCCGGGGC-3' DNA hairpin assessed as change in fluorescence intensity at 1 uM after 45 mins by fluorescence quenching analysis relative to control
[8] = Binding affinity to 5'-GGGGGCGC-3' DNA hairpin assessed as change in fluorescence intensity at 1 uM after 45 mins by fluorescence quenching analysis relative to control
[9] = Binding affinity to 5'-GGGCCGGG-3' DNA hairpin assessed as change in fluorescence intensity at 1 uM after 45 mins by fluorescence quenching analysis relative to control
[10] = Binding affinity to 5'-CCGGGGCC-3' DNA hairpin assessed as change in fluorescence intensity at 1 uM after 45 mins by fluorescence quenching analysis relative to control
[11] = Binding affinity to 5'-GCGGGGGG-3' DNA hairpin assessed as change in fluorescence intensity at 1 uM after 45 mins by fluorescence quenching analysis relative to control
[12] = Binding affinity to 5'-GGGCCGCG-3' DNA hairpin assessed as change in fluorescence intensity at 1 uM after 45 mins by fluorescence quenching analysis relative to control
[13] = Binding affinity to 5'-CCCGGCGG-3' DNA hairpin assessed as change in fluorescence intensity at 1 uM after 45 mins by fluorescence quenching analysis relative to control
[14] = Binding affinity to 5'-CGCGGGGG-3' DNA hairpin assessed as change in fluorescence intensity at 1 uM after 45 mins by fluorescence quenching analysis relative to control
[15] = Binding affinity to 5'-CCCCGCGC-3' DNA hairpin assessed as change in fluorescence intensity at 1 uM after 45 mins by fluorescence quenching analysis relative to control
[16] = Binding affinity to 5'-CGCCCGCC-3' DNA hairpin assessed as change in fluorescence intensity at 1 uM after 45 mins by fluorescence quenching analysis relative to control
[17] = Binding affinity to 5'-GGGGCGCG-3' DNA hairpin assessed as change in fluorescence intensity at 1 uM after 45 mins by fluorescence quenching analysis relative to control
[18] = Binding affinity to 5'-GCGGCGGG-3' DNA hairpin assessed as change in fluorescence intensity at 1 uM after 45 mins by fluorescence quenching analysis relative to control
[19] = Binding affinity to 5'-CGCGCGGC-3' DNA hairpin assessed as change in fluorescence intensity at 1 uM after 45 mins by fluorescence quenching analysis relative to control
[20] = Binding affinity to 5'-CGGCGGCC-3' DNA hairpin assessed as change in fluorescence intensity at 1 uM after 45 mins by fluorescence quenching analysis relative to control
[21] = Binding affinity to 5'-GCCGGCCG-3' DNA hairpin assessed as change in fluorescence intensity at 1 uM after 45 mins by fluorescence quenching analysis relative to control
[22] = Binding affinity to 5'-GGGGGGCG-3' DNA hairpin assessed as change in fluorescence intensity at 1 uM after 45 mins by fluorescence quenching analysis relative to control
[23] = Binding affinity to 5'-CGCCCGGC-3' DNA hairpin assessed as change in fluorescence intensity at 1 uM after 45 mins by fluorescence quenching analysis relative to control
[24] = Binding affinity to 5'-CGCGGGCG-3' DNA hairpin assessed as change in fluorescence intensity at 1 uM after 45 mins by fluorescence quenching analysis relative to control
[25] = Binding affinity to 5'-GGCCGGCG-3' DNA hairpin assessed as change in fluorescence intensity at 1 uM after 45 mins by fluorescence quenching analysis relative to control
[26] = Binding affinity to 5'-CCGGCCCG-3' DNA hairpin assessed as change in fluorescence intensity at 1 uM after 45 mins by fluorescence quenching analysis relative to control
[27] = Binding affinity to 5'-GGCGGGCG-3' DNA hairpin assessed as change in fluorescence intensity at 1 uM after 45 mins by fluorescence quenching analysis relative to control
[28] = Binding affinity to 5'-CCGGCCGG-3' DNA hairpin assessed as change in fluorescence intensity at 1 uM after 45 mins by fluorescence quenching analysis relative to control
[29] = Binding affinity to 5'-GCGCGGCG-3' DNA hairpin assessed as change in fluorescence intensity at 1 uM after 45 mins by fluorescence quenching analysis relative to control
[30] = Binding affinity to 5'-CCGCCCCG-3' DNA hairpin assessed as change in fluorescence intensity at 1 uM after 45 mins by fluorescence quenching analysis relative to control
[31] = Binding affinity to 5'-GCCCGCGG-3' DNA hairpin assessed as change in fluorescence intensity at 1 uM after 45 mins by fluorescence quenching analysis relative to control
[32] = Binding affinity to 5'-GCGCGGCC-3' DNA hairpin assessed as change in fluorescence intensity at 1 uM after 45 mins by fluorescence quenching analysis relative to control
[33] = Binding affinity to 5'-CGCGGCGG-3' DNA hairpin assessed as change in fluorescence intensity at 1 uM after 45 mins by fluorescence quenching analysis relative to control
[34] = Binding affinity to 5'-GGGCGGCG-3' DNA hairpin assessed as change in fluorescence intensity at 1 uM after 45 mins by fluorescence quenching analysis relative to control
[35] = Binding affinity to 5'-GGCGCCGG-3' DNA hairpin assessed as change in fluorescence intensity at 1 uM after 45 mins by fluorescence quenching analysis relative to control
[36] = Binding affinity to 5'-GGCGGGCC-3' DNA hairpin assessed as change in fluorescence intensity at 1 uM after 45 mins by fluorescence quenching analysis relative to control

## NCC1O[C@H](O[C@H]2[C@@H](O)[C@H](O[C@@H]3[C@@H](O)[C@H](N)C[C@H](N)[C@H]3O[C@H]3O[C@H](CN)[C@@H](O)[C@H](O)[C@H]3N)O[C@@H]2CSCCNC(=O)CCSCC(=O)Nc2ccc(-c3c4ccc(=O)cc-4oc4cc(O)ccc34)c(C(=O)O)c2)[C@H](N)[C@@H](O)[C@@H]1O (stereo partly specified)
[1]
  Activity: 15%
[2]
  Activity: 18.1%
[3]
  Activity: 29.9%
[4]
  Activity: 30.2%
[5]
  Activity: 32.2%
[6]
  Activity: 33.2%
[7]
  Activity: 33.4%
[8]
  Activity: 35.6%
[9]
  Activity: 37.5%
[10]
  Activity: 37.6%
[11]
  Activity: 38.1%
[12]
  Activity: 39.6%
[13]
  Activity: 39.8%
[14]
  Activity: 40.6%
[15]
  Activity: 41.4%
[16]
  Activity: 42%
[17]
  Activity: 43.4%
[18]
  Activity: 43.5%
[19]
  Activity: 43.8%
[20]
  Activity: 43.8%
[21]
  Activity: 45.3%
[22]
  Activity: 46.3%
[23]
  Activity: 46.6%
[24]
  Activity: 47.5%
[25]
  Activity: 47.6%
[26]
  Activity: 48%
[27]
  Activity: 48.3%
[28]
  Activity: 49.1%
[29]
  Activity: 49.1%
[30]
  Activity: 49.3%
[31]
  Activity: 50.3%
[32]
  Activity: 50.4%
[33]
  Activity: 52%
[34]
  Activity: 52.7%
[35]
  Activity: 53.2%
[36]
  Activity: 53.2%
